From ChEMBL document CHEMBL3885881, “DrugMatrix”

Organism: Rattus norvegicus
Assay: DrugMatrix - Regimen: Daily Repeat
Type: toxicity, organism-based, Sprague-Dawley
Parameters: regimen Daily Repeat, gender Male, age 6-8 weeks
Conditions: in vivo, po, route oral GAVAGE, vehicle .5 % CMC; for ABSOLUTE BASOPHIL / ABSOLUTE EOSINOPHIL / ABSOLUTE LYMPHOCYTE / ABSOLUTE MONOCYTE / ABSOLUTE SEGMENTED NEUTROPHIL / BASOPHIL / EOSINOPHIL / ERYTHROCYTE COUNT / HEMATOCRIT / HEMOGLOBIN / LEUKOCYTE COUNT / LYMPHOCYTE / MEAN CORPUSCULAR HEMOGLOBIN / MEAN CORPUSCULAR HEMOGLOBIN CONCENTRATION / MEAN CORPUSCULAR VOLUME / MONOCYTE / NEUTROPHIL / NUCLEATED RED BLOOD CELLS / PLATELET COUNT: tissue Blood; for ALANINE AMINOTRANSFERASE / ALBUMIN / ALKALINE PHOSPHATASE / ASPARTATE AMINOTRANSFERASE / BLOOD UREA NITROGEN / CARBON DIOXIDE / CHLORIDE / CHOLESTEROL / CREATINE PHOSPHOKINASE / CREATININE / GLUCOSE / LACTATE DEHYDROGENASE / LIPASE / PHOSPHORUS / POTASSIUM / SODIUM / TOTAL BILIRUBIN / TOTAL PROTEIN / URIC ACID: tissue Plasma
[1] = 0.3 mg/kg, 72 h, dose level Low, time 3 day
[2] = 0.3 mg/kg, 120 h, dose level Low, time 5 day
[3] = 100 mg/kg, 72 h, dose level High, time 3 day
[4] = 100 mg/kg, 120 h, dose level High, time 5 day

SMILES: CN1[C@@H]2CC[C@H]1C[C@@H](OC(=O)c1c[nH]c3ccccc13)C2 [TROPISETRON]
- ABSOLUTE BASOPHIL [1]: 0 CELLS/uL
- ABSOLUTE EOSINOPHIL [1]: 256.33 CELLS/uL
- ABSOLUTE LYMPHOCYTE [1]: 11976 CELLS/uL
- ABSOLUTE MONOCYTE [1]: 96 CELLS/uL
- ABSOLUTE SEGMENTED NEUTROPHIL [1]: 905 CELLS/uL
- BASOPHIL [1]: 0%
- EOSINOPHIL [1]: 2%
- ERYTHROCYTE COUNT [1]: 5.89 x10E6/uL
- HEMATOCRIT [1]: 37.4%
- HEMOGLOBIN [1]: 14.07 G/DL
- LEUKOCYTE COUNT [1]: 13.23 x10E3/uL
- LYMPHOCYTE [1]: 90.67%
- MEAN CORPUSCULAR HEMOGLOBIN [1]: 23.87 pg
- MEAN CORPUSCULAR HEMOGLOBIN CONCENTRATION [1]: 37.63 G/DL
- MEAN CORPUSCULAR VOLUME [1]: 63.5 fL
- MONOCYTE [1]: 0.67%
- NEUTROPHIL [1]: 6.67%
- NUCLEATED RED BLOOD CELLS [1]: 0 /100WBC
- PLATELET COUNT [1]: 1325.33 x10E3/uL
- ALANINE AMINOTRANSFERASE [1]: 46.33 u/L
- ALBUMIN [1]: 4.43 G/DL
- ALKALINE PHOSPHATASE [1]: 408.67 u/L
- ASPARTATE AMINOTRANSFERASE [1]: 87.33 u/L
- BLOOD UREA NITROGEN [1]: 13 mg/dL
- CARBON DIOXIDE [1]: 26 mmol/L
- CHLORIDE [1]: 106 MEQ/L
- CHOLESTEROL [1]: 71.33 mg/dL
- CREATINE PHOSPHOKINASE [1]: 621.67 u/L
- CREATININE [1]: 0.21 mg/dL
- GLUCOSE [1]: 160.67 mg/dL
- LACTATE DEHYDROGENASE [1]: 123.67 u/L
- LIPASE [1]: 9 u/L
- PHOSPHORUS [1]: 14.4 mg/dL
- POTASSIUM [1]: 6.64 MEQ/L
- SODIUM [1]: 147.37 MEQ/L
- TOTAL BILIRUBIN [1]: 0.2 mg/dL
- TOTAL PROTEIN [1]: 6.17 G/DL
- URIC ACID [1]: 2.47 mg/dL
- ABSOLUTE BASOPHIL [2]: 0 CELLS/uL
- ABSOLUTE EOSINOPHIL [2]: 244.67 CELLS/uL
- ABSOLUTE LYMPHOCYTE [2]: 13752.67 CELLS/uL
- ABSOLUTE MONOCYTE [2]: 213.33 CELLS/uL
- ABSOLUTE SEGMENTED NEUTROPHIL [2]: 1056 CELLS/uL
- BASOPHIL [2]: 0%
- EOSINOPHIL [2]: 1.67%
- ERYTHROCYTE COUNT [2]: 5.41 x10E6/uL
- HEMATOCRIT [2]: 34.5%
- HEMOGLOBIN [2]: 13.27 G/DL
- LEUKOCYTE COUNT [2]: 15.27 x10E3/uL
- LYMPHOCYTE [2]: 90.33%
- MEAN CORPUSCULAR HEMOGLOBIN [2]: 24.57 pg
- MEAN CORPUSCULAR HEMOGLOBIN CONCENTRATION [2]: 38.43 G/DL
- MEAN CORPUSCULAR VOLUME [2]: 63.8 fL
- MONOCYTE [2]: 1.33%
- NEUTROPHIL [2]: 6.67%
- NUCLEATED RED BLOOD CELLS [2]: 0 /100WBC
- PLATELET COUNT [2]: 1293.33 x10E3/uL
- ALANINE AMINOTRANSFERASE [2]: 47.33 u/L
- ALBUMIN [2]: 4.13 G/DL
- ALKALINE PHOSPHATASE [2]: 386.33 u/L
- ASPARTATE AMINOTRANSFERASE [2]: 80 u/L
- BLOOD UREA NITROGEN [2]: 17.67 mg/dL
- CARBON DIOXIDE [2]: 25.33 mmol/L
- CHLORIDE [2]: 106.67 MEQ/L
- CHOLESTEROL [2]: 71.33 mg/dL
- CREATINE PHOSPHOKINASE [2]: 310 u/L
- CREATININE [2]: 0.21 mg/dL
- GLUCOSE [2]: 162 mg/dL
- LACTATE DEHYDROGENASE [2]: 329 u/L
- LIPASE [2]: 9 u/L
- PHOSPHORUS [2]: 13.37 mg/dL
- POTASSIUM [2]: 6 MEQ/L
- SODIUM [2]: 145.27 MEQ/L
- TOTAL BILIRUBIN [2]: 0.27 mg/dL
- TOTAL PROTEIN [2]: 6.37 G/DL
- URIC ACID [2]: 1.77 mg/dL
- ABSOLUTE BASOPHIL [3]: 0 CELLS/uL
- ABSOLUTE EOSINOPHIL [3]: 0 CELLS/uL
- ABSOLUTE LYMPHOCYTE [3]: 8279 CELLS/uL
- ABSOLUTE MONOCYTE [3]: 180 CELLS/uL
- ABSOLUTE SEGMENTED NEUTROPHIL [3]: 707.67 CELLS/uL
- BASOPHIL [3]: 0%
- EOSINOPHIL [3]: 0%
- ERYTHROCYTE COUNT [3]: 5.38 x10E6/uL
- HEMATOCRIT [3]: 33.5%
- HEMOGLOBIN [3]: 12.6 G/DL
- LEUKOCYTE COUNT [3]: 9.17 x10E3/uL
- LYMPHOCYTE [3]: 90.33%
- MEAN CORPUSCULAR HEMOGLOBIN [3]: 23.47 pg
- MEAN CORPUSCULAR HEMOGLOBIN CONCENTRATION [3]: 37.6 G/DL
- MEAN CORPUSCULAR VOLUME [3]: 62.3 fL
- MONOCYTE [3]: 2%
- NEUTROPHIL [3]: 7.67%
- NUCLEATED RED BLOOD CELLS [3]: 0 /100WBC
- PLATELET COUNT [3]: 1392.33 x10E3/uL
- ALANINE AMINOTRANSFERASE [3]: 63.67 u/L
- ALBUMIN [3]: 4.3 G/DL
- ALKALINE PHOSPHATASE [3]: 429.67 u/L
- ASPARTATE AMINOTRANSFERASE [3]: 69.33 u/L
- BLOOD UREA NITROGEN [3]: 14.33 mg/dL
- CARBON DIOXIDE [3]: 27.67 mmol/L
- CHLORIDE [3]: 105.67 MEQ/L
- CHOLESTEROL [3]: 54.33 mg/dL
- CREATINE PHOSPHOKINASE [3]: 189.33 u/L
- CREATININE [3]: 0.3 mg/dL
- GLUCOSE [3]: 155.33 mg/dL
- LACTATE DEHYDROGENASE [3]: 122.67 u/L
- LIPASE [3]: 8.33 u/L
- PHOSPHORUS [3]: 13.03 mg/dL
- POTASSIUM [3]: 5.65 MEQ/L
- SODIUM [3]: 149.97 MEQ/L
- TOTAL BILIRUBIN [3]: 0.2 mg/dL
- TOTAL PROTEIN [3]: 5.87 G/DL
- URIC ACID [3]: 1.2 mg/dL
- ABSOLUTE BASOPHIL [4]: 0 CELLS/uL
- ABSOLUTE EOSINOPHIL [4]: 100.67 CELLS/uL
- ABSOLUTE LYMPHOCYTE [4]: 14254 CELLS/uL
- ABSOLUTE MONOCYTE [4]: 107 CELLS/uL
- ABSOLUTE SEGMENTED NEUTROPHIL [4]: 1271.67 CELLS/uL
- BASOPHIL [4]: 0%
- EOSINOPHIL [4]: 0.67%
- ERYTHROCYTE COUNT [4]: 5.79 x10E6/uL
- HEMATOCRIT [4]: 36.33%
- HEMOGLOBIN [4]: 13.6 G/DL
- LEUKOCYTE COUNT [4]: 15.73 x10E3/uL
- LYMPHOCYTE [4]: 90.67%
- MEAN CORPUSCULAR HEMOGLOBIN [4]: 23.5 pg
- MEAN CORPUSCULAR HEMOGLOBIN CONCENTRATION [4]: 37.43 G/DL
- MEAN CORPUSCULAR VOLUME [4]: 62.73 fL
- MONOCYTE [4]: 0.67%
- NEUTROPHIL [4]: 8%
- NUCLEATED RED BLOOD CELLS [4]: 0 /100WBC
- PLATELET COUNT [4]: 1276.33 x10E3/uL
- ALANINE AMINOTRANSFERASE [4]: 63.67 u/L
- ALBUMIN [4]: 4.2 G/DL
- ALKALINE PHOSPHATASE [4]: 501 u/L
- ASPARTATE AMINOTRANSFERASE [4]: 81.67 u/L
- BLOOD UREA NITROGEN [4]: 16 mg/dL
- CARBON DIOXIDE [4]: 26.33 mmol/L
- CHLORIDE [4]: 105.33 MEQ/L
- CHOLESTEROL [4]: 59.33 mg/dL
- CREATINE PHOSPHOKINASE [4]: 219 u/L
- CREATININE [4]: 0.25 mg/dL
- GLUCOSE [4]: 178 mg/dL
- LACTATE DEHYDROGENASE [4]: 91 u/L
- LIPASE [4]: 9 u/L
- PHOSPHORUS [4]: 15.37 mg/dL
- POTASSIUM [4]: 5.6 MEQ/L
- SODIUM [4]: 146.8 MEQ/L
- TOTAL BILIRUBIN [4]: 0.17 mg/dL
- TOTAL PROTEIN [4]: 6.13 G/DL
- URIC ACID [4]: 2.13 mg/dL
